Consider 7 compounds from patent publication US5444042A, “Method of treatment of neurodegeneration with calpain inhibitors” (Cortex Pharmaceuticals, priority 1994, dated 1995).

In one assay the target is T1, Calpain I (Homo sapiens, UniProt P07384).
T1 sequence (P07384 1-714): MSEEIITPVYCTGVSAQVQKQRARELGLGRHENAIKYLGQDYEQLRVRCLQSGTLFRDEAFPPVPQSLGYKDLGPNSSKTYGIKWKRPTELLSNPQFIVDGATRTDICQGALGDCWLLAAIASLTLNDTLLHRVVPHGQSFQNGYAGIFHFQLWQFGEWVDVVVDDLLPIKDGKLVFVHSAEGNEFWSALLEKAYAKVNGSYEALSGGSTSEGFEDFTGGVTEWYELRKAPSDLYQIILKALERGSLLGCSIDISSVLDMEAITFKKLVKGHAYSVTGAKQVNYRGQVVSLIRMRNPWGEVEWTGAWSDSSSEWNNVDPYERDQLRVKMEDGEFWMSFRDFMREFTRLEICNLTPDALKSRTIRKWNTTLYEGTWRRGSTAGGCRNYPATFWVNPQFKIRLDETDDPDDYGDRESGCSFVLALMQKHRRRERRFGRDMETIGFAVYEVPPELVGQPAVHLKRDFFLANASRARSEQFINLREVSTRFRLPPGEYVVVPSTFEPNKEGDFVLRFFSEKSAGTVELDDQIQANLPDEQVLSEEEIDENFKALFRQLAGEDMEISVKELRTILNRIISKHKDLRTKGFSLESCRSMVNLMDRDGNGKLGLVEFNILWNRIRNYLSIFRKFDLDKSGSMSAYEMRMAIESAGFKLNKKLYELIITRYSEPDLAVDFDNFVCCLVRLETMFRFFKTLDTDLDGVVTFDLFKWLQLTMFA
T1 sequence (P04632 1-268 partner): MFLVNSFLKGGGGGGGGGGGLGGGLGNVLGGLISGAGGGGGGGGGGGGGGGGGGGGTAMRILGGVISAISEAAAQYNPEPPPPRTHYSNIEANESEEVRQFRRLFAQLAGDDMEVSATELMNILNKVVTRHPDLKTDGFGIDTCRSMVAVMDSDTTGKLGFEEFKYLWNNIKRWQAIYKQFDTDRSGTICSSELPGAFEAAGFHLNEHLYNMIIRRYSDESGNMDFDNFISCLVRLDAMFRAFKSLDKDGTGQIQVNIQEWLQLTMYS
Kind of assay: Calpain I 14C-methylated casein proteolysis (Table 1A). It counts as biochemical. The procedure:
(§1) The isocoumarins are irreversible inhibitors of Calpain. We obtained IC50 values for a variety of these Calpain Inhibitors as a kinetic analysis of these compounds.
(§2) Calpains I and II were purified by the method of (Yoshimura, et al. 1983). (Kitahara 1984) provides an alternative purification scheme. Calpain II may alternatively be purchased from Sigma Chemical Co. as "Calcium Activated Neutral Protease." In this assay, purified Calpain was incubated with ^14 C-methylated casein in the presence of various Heterocyclic Compounds and the amount of acid-soluble radioactivity released by the action of Calpain was measured.

Assay [1] deals with T2, Calpain II (Homo sapiens, UniProt P17655).
T2 construct: from tissue; purified by a cited method
T2 sequence (P17655 1-700): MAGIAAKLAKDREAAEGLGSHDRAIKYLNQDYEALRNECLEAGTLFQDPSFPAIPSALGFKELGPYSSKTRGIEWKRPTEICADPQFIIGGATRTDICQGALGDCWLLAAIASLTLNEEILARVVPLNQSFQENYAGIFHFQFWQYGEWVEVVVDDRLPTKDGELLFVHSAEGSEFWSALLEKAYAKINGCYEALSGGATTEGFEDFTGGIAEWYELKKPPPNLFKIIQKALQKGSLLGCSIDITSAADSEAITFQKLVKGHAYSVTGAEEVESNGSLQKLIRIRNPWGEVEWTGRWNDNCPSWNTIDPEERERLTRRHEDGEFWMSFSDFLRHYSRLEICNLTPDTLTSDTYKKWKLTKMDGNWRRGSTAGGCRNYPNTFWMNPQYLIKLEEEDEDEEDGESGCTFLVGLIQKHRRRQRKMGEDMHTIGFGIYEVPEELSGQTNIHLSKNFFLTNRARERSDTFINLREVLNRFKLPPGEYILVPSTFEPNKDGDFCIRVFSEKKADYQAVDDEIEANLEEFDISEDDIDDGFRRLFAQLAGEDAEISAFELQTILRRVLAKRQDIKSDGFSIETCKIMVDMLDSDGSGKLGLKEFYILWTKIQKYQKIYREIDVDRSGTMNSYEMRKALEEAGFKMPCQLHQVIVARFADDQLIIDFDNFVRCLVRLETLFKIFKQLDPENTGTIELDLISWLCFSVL
T2 sequence (P04632 1-268 partner): T1 sequence (P04632 1-268 partner)
Kind of assay: Calpain II 14C-methylated casein proteolysis (Table 1A). It counts as biochemical. How it is done:
as §1, §2

A further assay deals with Calpain within platelets. Kind of assay: Platelet membrane permeation assay, spectrin proteolysis (Examples 4A, 4B). It counts as cell-based, rat. The following applies: 100 μM, A23187 1 μM. The procedure, abridged:
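Rat (Sprague-Dawley) platelets at 10^7 cells/ml in HEPES buffer pH 7.4, preincubated 5 min with inhibitor, then 5 min with 1 μM A23187 to activate calpain. Spectrin proteolysis assessed by SDS-PAGE and anti-spectrin immunoblot, quantified by densitometry.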

Assay [2] deals with Calpain in crude brain extracts. Kind of assay: Ca2+-stimulated spectrin proteolysis in crude brain extracts (Example 2). The format is biochemical. The conditions noted are these: 100 μM. The procedure, abridged:
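Brain tissue was homogenized in 10 mM Tris pH 7.4, 0.32 M sucrose, 1 mM EGTA and 1 mM DTT, and nuclei and debris were removed. Calpain activity was scored as Ca^2+-stimulated proteolysis of endogenous spectrin.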

The test system of assay [3] is Calpain II. Kind of assay: Kapp/[I] progress curve method, Calpain II (Table 1C). It counts as biochemical. Further details: unit not given here. The following applies: Rabbit Calpain II, Suc-leu-tyr-amidomethylcoumarin. The procedure: The Halo-Ketone Peptides, like the substituted isocoumarins, are irreversible inhibitors of Calpain. We determined the Kapp /[I] values for various members of this class of compounds against Calpains I and II. For comparison, we also determined these values against the additional thiol proteases Papain and Cathepsin B for at least one Halo-Ketone Peptide.
We assayed Calpain I and II using Suc-leu-tyr-amidomethylcoumarin. Papain was assayed using benzoyl-arg-4-nitroanilide, and Cathepsin B (bovine) was assayed using CBZ-lys-4-nitrophenyl ester. We followed the progress curve method of Tian and Tsou, Biochemistry, 21:1028-1032 (1982), the disclosure of which is hereby incorporated by reference, to derive kinetic data. Briefly, this method makes use of the equation: [formula] where [P.infin. ] represents the concentration of product formed at a time approaching infinity, A is the Kapp in the presence of substrate (S), K is the Michaelis constant and [Y] is the concentration of the inhibitor. Since [S] and [Y] are known and V and K can be determined, Kapp can be readily determined.

The next assay has as its target Cathepsin B (Bos taurus, UniProt P07688). Kind of assay: Cathepsin B inhibition, Z-Arg-Arg-AFC (Table PKC1). The format is biochemical. The conditions noted are these: pH 6.0 phosphate buffer, substrate Z-Arg-Arg-AFC; read-out: Ki CB (Cathepsin B). The procedure:
(§3) Various concentrations of inhibitors in dimethylsulfoxide (DMSO) were added to the assay mixture, which contained buffer and substrate. The reaction was started by the addition of the enzyme and the hydrolysis rates were followed spectrophotometrically or fluorimetrically. 88 mM KH2 PO4, 12 mM Na2 HPO4, 1.33 mM EDTA, 2.7 mM cysteine, pH 6.0 was used as a buffer for cathepsin B; and 20 mM Hepes, 10 mM CaCl2, 10 mM β-mercaptoethanol, pH 7.2 buffer was utilized for calpain I and calpain II.
(§4) All peptide thioester hydrolysis rates were measured with assay mixtures containing 4,4'-dithiodipyridine [e324=19800 M-1 cm-1; Grasetti & Murray, Arch. Biochem. Biophys. 119, pp 41-49 (1967)]. Papain was assayed with Bz-Arg-AMC or Bz-Arg-NA [Kanaoka et al., Chem. Pharm. Bull. 25, 3126-3128 (1977)], and the AMC (7-amino-4-methylcoumarin) release was followed fluorimetrically (excitation at 380 nm, and emission at 460 nm). Cathepsin B was assayed with Z-Arg-Arg-AFC [Barrett and Kirschke, Methods Enzymol. 80, 535-561 (1981)], and the AFC (7-amino-4-trifluoromethylcoumarin) release was followed fluorimetrically (excitation at 400 nm, and emission at 505 nm). Calpain I from human erythrocytes and calpain II from rabbit were assayed using Suc-Leu-Tyr-AMC [Sasaki et al., J. Biol. Chem. 259, 12489-12494 (1984), hereby incorporated by reference], and the AMC (7-amino-4-methylcoumarin) release was followed fluorimetrically (excitation at 380 nm, and emission at 460 nm). Enzymatic hydrolysis rates were measured at various substrate and inhibitor concentrations, and Ki values were determined by Dixon plot.

For assay [4], the target named is T3, Calpain I from human erythrocytes (Homo sapiens, UniProt P07384).
T3 construct: Calpain I from human erythrocytes and calpain II from rabbit were assayed using Suc-Leu-Tyr-AMC; from tissue; host or cells: human erythrocytes
T3 sequence (P07384 1-714): T1 sequence (P07384 1-714)
T3 sequence (P04632 1-268 partner): T1 sequence (P04632 1-268 partner)
Kind of assay: Calpain I inhibition, Suc-Leu-Tyr-AMC (Table PKC1). The conditions noted are these: 20 mM Hepes, 10 mM CaCl2, 10 mM β-mercaptoethanol, pH 7.2; read-out: Ki CI (Calpain I). It counts as biochemical. The procedure:
as §3, with “Our discovery of Peptide Keto-Compounds effective as Calpain Inhibitors was made through assay of the Peptide Keto-Compounds as reversible inhibitors. Various” for “Various”
as §4

The next assay deals with T4, Papain (Carica papaya, UniProt P00784).
T4 sequence (P00784 134-345): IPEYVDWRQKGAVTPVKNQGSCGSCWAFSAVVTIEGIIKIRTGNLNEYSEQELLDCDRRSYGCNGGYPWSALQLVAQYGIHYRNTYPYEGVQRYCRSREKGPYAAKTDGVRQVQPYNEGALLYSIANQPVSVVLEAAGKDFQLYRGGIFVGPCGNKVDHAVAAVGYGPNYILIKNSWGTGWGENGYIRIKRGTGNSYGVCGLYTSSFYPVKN
The experiment in a line: Papain inhibition, Ki by Dixon plot (Table PKC1). The format is biochemical. The following applies: 0.05M Tris-HCl pH 7.5, 2 mM EDTA, 5 mM cysteine, 1% DMSO, 25° C., substrate Nα-Benzoyl-Arg-AMC; read-out: Ki P (Papain). How it is done:
as §3, §4
The inhibition constants for papain shown in Table PKC1 were measured in 0.05M Tris-HCl, pH 7.5 buffer, containing 2 mM EDTA, 5 mM cysteine (freshly prepared), 1% DMSO, at 25° C., using N^α -Benzoyl-Arg-AMC as a substrate, except that those values of inhibition constants for papain marked with an "e" in Table PKC1 were measured in 50 mM Tris-HCl, pH 7.5 buffer, containing 20 mM EDTA, 5 mM cysteine, 9% DMSO, at 25° C., using N^α -Benzoyl-Arg-NA as a substrate.

A further assay has as its system N18-RE-105 cells. Kind of assay: Glutamate-induced cell death, MTT conversion (Example 5). It counts as cell-based. The conditions noted are these: 5 mM glutamate, inhibitor 3 μg/ml, 19 hours. How it is done: Stock cultures of N18-RE-105 cells were maintained in Dulbecco's modified Eagle's medium (DMEM) containing 10% fetal bovine serum (FBS) and supplemented with hypoxanthine, aminopterin and thymidine (HAT). Subconfluent cultures were split and plated into 96-well plates. Twenty-four hours after plating the cells were exposed to fresh media containing glutamate and various concentrations of Calpain inhibitors. Control cells were not treated with glutamate. Conversion of MTT was measured 19 hours later as described. Nineteen hours after the onset of exposure, cell viability was quantitated by measuring the extent to which the cells convert 3(4,5-dimethylthiazol-2-yl)-2-5-diphenyltetrazolium bromide (MTT) to a blue formazan product, which occurs in the mitochondria of living but not dead cells (Pauwels et al., 1988). A higher absorbance is indicative of greater cell viability.

Where a SMILES comes first, the peptide text is derived from it. The star is where a group is joined. Cbz = O=C(OCc1ccccc1)*; CH2Cl = ClC*

For orientation: IC50 means the concentration at which inhibition is half-maximal. Broadly, the Ki is a dissociation constant, usually derived from enzyme kinetics or from competition with a known ligand.

For the compound `N=C(N)SCCCOc1oc(=O)c2cc(NC(=O)NCc3ccccc3)ccc2c1Cl` [PhCH2 NHCONH-CiTPrOIC, 7-(benzylcarbamoylamino)-4-chloro-3-(3-isothiureidopropoxy)isocoumarin], the 50% inhibitory concentration (IC50) was found to be 80 µM at Calpain I and 30 µM at Calpain II [1]. Further, the “inhibition of Calpain within platelets” value with Calpain within platelets is recorded as “significant inhibition”. For the same compound, the “inhibition of spectrin proteolysis in crude brain extracts” value (shortened to “inhibition of spectrin proteolysis”) in [2] is recorded as “significant inhibition”.
Take `N=C(N)SCCCOc1oc(=O)c2cc(NC(=O)[C@@H](N)Cc3ccccc3)ccc2c1Cl` [L-Phe-NH-CiTPrOIC, 7-(L-phenylalanylamino)-4-chloro-3-(3-isothiureidopropoxy)isocoumarin]: half-maximal inhibition at Calpain II [1] (IC50) was put at 30 µM. Also, the “inhibition of Calpain within platelets” value in the assay on Calpain within platelets is “significant inhibition”. Also, the “inhibition of spectrin proteolysis” value in assay [2] is listed as “significant inhibition”.
Regarding `CC(C)CC(NC(=O)CNC(=O)OCc1ccccc1)C(=O)NC(C)C(=O)CCl` (stereo not drawn) [Z-Gly-Leu-Ala-CH2 Cl] (Cbz-Gly-Leu-Ala-CH2Cl; configuration not given here), in the assay with Calpain II [3], the “Kapp/[I] CII” value was 210000. Further, the “inhibition of spectrin proteolysis” value in [2] is “significant inhibition”.
`CCOC(=O)C(=O)C(C)NC(=O)C(C)NC(=O)C(C)NC(=O)OCc1ccccc1` (racemic) [Z-Ala-Ala-DL-Ala-COOEt, Z-Ala-Ala-DL-Ala-CO2 Et]: the values for the inhibition constant (Ki) (at Cathepsin B; in assay [4]; at Papain) were 2.2 µM, 200 µM and 1.5 µM, respectively.
Regarding `CC(=O)Nc1ccc2c(Cl)c(OCCCSC(=N)N)oc(=O)c2c1` [CH3 CONH-CiTPrOIC, 7-(acetylamino)-4-chloro-3-(3-isothiureidopropoxy)isocoumarin], the IC50 against Calpain I was determined as 700 µM; at Calpain II [1] it was 80 µM. In the assay with Calpain within platelets, the “inhibition of Calpain within platelets” value is “significant inhibition”. The “inhibition of spectrin proteolysis” value in assay [2] is given as “significant inhibition”.
For the compound `Cc1ccc(S(=O)(=O)N[C@@H](Cc2ccccc2)C(=O)CCl)cc1` [TPCK, Tosyl-PheCH2 Cl, reference compound], in the assay with N18-RE-105 cells, the “blue formazan product relative to control without glutamate” value is ≥ 100%.
On to `CC(C)(C)OC(=O)N[C@@H](Cc1ccccc1)C(=O)Nc1ccc2c(Cl)c(OCCCSC(=N)N)oc(=O)c2c1` [BOC-L-Phe-NH-CiTPrOIC, 7-(N-t-butyloxycarbonyl-L-phenylalanylamino)-4-chloro-3-(3-isothiureidopropoxy)isocoumarin], for which the “IC50 Calpain I” value on Calpain I is “no inhibition”. Further, the IC50 at Calpain II [1] is > 200 µM.
